What was measured:
histamine H3 receptor = histamine H3 receptor (Homo sapiens, UniProt Q9Y5N1); assay: FLPPR assay, antagonistic activity on histamine H3 receptor; format: cell-based
Experimental: The FLPPR assay (NIH Assay Guidance Manual: HTS Assay Validation-Section 4.3. Analysis (Potency), htpps://www.ncbi.nlm.nih.gov/books/NBK83783) was performed using SUVN-G3031 as a positive control, and 21 target compounds were tested for the antagonistic activity target to histamine H3 receptor.

CCI model rats = assay: Analgesic effect, chronic constriction injury (CCI) model, mechanical withdrawal threshold; format: in vivo, SD rats
Text: Exposing the sciatic nerve on male SD rats' (180-200 g) right hind leg, in the anterior segment where the sciatic nerve is about to bifurcate, use sterile chromic gut thread (No. 4, 0.15 mm in diameter) to ligate 4 loops loosely, with each loop 1-2 mm apart, and suture the muscle and skin to establish the chronic constriction injury (CCI) model. In the sham-operated group, only the sciatic nerve was exposed without ligation, and the muscle and skin were sutured. The mechanical withdrawal threshold was detected by electronic analgesia meter (IITC-2391) on the 7th day for 2 consecutive days.
The CCI model rats with stabilized mechanical withdrawal thresholds were randomly divided into five groups, named model group (model), pregabalin group (Pre, 30 mg/kg), BIOS-B-12 compound group (3 mg/kg), BIOS-B-12 compound group (1 mg/kg), and BIOS-B-12 compound group (0.3 mg/kg), and were administered at 1 mL/100 g by gavage, and the same column of saline was gavaged in Sham an model group. The basic value was determined before drug administration, and the mechanical withdrawal thresholds were detected at 0.5 h, 1 h, 2 h, 4 h, 6 h, and 24 h after a single drug administration, and the p value was calculated by ANOVA with T-test.
The CCI model rats with stabilized mechanical withdrawal thresholds were randomly divided into three groups, named model group (model), pregabalin group (Pre, 30 mg/kg), and BIOS-B-14 compound group (1 mg/kg), and were administered at 1 mL/100 g by gavage, and the same column of saline was gavaged in Sham and model group. The basic value was determined before drug administration, and the mechanical withdrawal thresholds were detected at 0.5 h, 1 h, 2 h, 4 h, and 6 h after a single drug administration, and the p value was calculated by ANOVA with T-test.

[1] = system: histamine-induced scratching; assay: Antipruritic ability, histamine-induced scratching in mice; format: in vivo, C57BL/6J mice
Experimental: The C57BL/6J male mice, with 6-8 weeks old, were randomly divided into model group (Model), BIOS-B-12 compound group (10 mg/kg), BIOS-B-18 compound group (10 mg/kg) and dexamethasone group (Dex, 3 mg/kg), with 7 animals in each group. The mice were injected subcutaneously with 500 μg/50 μL histamine at the back of the neck after the administration of dexamethasone for 1 h, BIOS-B-12 for 4 h, and BIOS-B-18 for 1 h, respectively, and immediately observed for 30 min. The number of scratched was recorded and the inhibition rate was calculated as (Model-Compound)/Model×100%.

hERG channel = hERG channel (Homo sapiens, UniProt Q12809); assay: in vitro; conditions: Average inhibition rate (%) on hERG channel
Text: In cardiomyocytes, inhibition of the delayed rectifier potassium current (IKr) channel protein encoded by the human Ether-a-go-go Related Gene (hERG) is the most important mechanism by which drugs lead to prolongation of the QT interval. hERG is characterized by a specific molecular structure, which allows it to be inhibited by different structures, leading to severe arrhythmias. Statistically, 25-40% of lead compounds show varying degrees of hERG-related toxicity. Therefore, early evaluation of the effects of compounds on hERG is crucial in the drug development process.
The inhibition rate of compounds on hERG channels was examined by manual membrane clamp technique on HEK293 cell line which is stably expressing hERG ion channels.

[2] = BIOS-B-12 3, 1, 0.3 mg/kg vs pregabalin 30 mg/kg, FIG. 1 study

Chain of histamine H3 receptor (Q9Y5N1 whole entry, species assumed): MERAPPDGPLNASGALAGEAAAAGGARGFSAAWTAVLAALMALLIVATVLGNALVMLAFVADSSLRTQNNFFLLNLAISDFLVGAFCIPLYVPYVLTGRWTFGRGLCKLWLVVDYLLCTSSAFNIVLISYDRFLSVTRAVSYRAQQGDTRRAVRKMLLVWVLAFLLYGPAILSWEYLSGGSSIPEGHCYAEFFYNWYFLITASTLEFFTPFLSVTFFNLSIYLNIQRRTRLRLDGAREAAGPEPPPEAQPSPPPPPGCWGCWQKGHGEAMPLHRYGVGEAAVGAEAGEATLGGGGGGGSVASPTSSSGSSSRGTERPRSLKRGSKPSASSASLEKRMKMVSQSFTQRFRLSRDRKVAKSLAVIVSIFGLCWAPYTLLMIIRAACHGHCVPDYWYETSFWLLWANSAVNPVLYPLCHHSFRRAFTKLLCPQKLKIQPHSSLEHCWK
Chain of hERG channel (Q12809 whole entry): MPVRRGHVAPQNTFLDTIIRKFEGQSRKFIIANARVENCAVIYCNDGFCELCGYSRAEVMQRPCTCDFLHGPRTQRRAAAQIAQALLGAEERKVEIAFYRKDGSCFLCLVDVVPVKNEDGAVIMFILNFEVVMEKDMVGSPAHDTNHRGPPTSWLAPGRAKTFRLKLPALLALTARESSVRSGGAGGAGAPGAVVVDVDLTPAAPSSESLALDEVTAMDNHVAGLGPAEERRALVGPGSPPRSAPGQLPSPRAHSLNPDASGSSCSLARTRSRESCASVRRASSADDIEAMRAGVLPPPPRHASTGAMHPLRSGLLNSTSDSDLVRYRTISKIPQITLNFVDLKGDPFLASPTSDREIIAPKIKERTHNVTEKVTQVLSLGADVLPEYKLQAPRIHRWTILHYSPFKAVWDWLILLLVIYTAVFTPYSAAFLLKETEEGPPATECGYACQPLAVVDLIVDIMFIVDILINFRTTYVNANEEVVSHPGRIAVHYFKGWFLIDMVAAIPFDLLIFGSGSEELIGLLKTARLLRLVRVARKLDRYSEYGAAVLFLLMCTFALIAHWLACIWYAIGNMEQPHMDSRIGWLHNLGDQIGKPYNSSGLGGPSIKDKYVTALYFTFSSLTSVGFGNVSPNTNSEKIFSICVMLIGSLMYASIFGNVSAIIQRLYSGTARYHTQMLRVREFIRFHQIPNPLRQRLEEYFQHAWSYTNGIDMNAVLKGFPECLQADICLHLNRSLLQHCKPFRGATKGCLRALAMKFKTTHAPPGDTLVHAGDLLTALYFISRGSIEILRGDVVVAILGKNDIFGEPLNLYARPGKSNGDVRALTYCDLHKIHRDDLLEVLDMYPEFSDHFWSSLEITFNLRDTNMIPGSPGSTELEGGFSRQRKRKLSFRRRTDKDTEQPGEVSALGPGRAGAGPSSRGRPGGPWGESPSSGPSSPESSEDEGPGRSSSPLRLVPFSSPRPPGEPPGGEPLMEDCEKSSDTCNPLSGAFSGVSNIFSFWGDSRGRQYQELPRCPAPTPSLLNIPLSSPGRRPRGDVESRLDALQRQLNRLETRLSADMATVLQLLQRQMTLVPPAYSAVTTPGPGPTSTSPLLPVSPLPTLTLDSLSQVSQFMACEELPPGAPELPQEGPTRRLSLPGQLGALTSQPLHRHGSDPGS

O=C(CN1CCN(C2CCC2)CC1)Nc1ccc(OC2CC(N3CCCCC3)C2)cc1 (stereo not drawn) [BIOS-B-12, 2-(4-cyclobutylpiperazin-1-yl)-N-(4-(3-(piperidin-1-yl)cyclobutoxy)phenyl)acetamide]
inhibition at 0.005 µM (histamine H3 receptor; read-out: % Inh-AVERAGE @ 5 nM): 99.1%
inhibition at 0.05 µM (histamine H3 receptor; read-out: % Inh-AVERAGE @ 50 nM): 98.8%
mechanical withdrawal thresholds vs model group (CCI model rats; 0.3 mg/kg single dose by gavage, 1 h to 2 h after administration, P<0.05, FIG. 1): significantly different
mechanical withdrawal thresholds vs model group (CCI model rats; 1 mg/kg single dose by gavage, 0.5 h to 6 h after administration, P<0.01, FIG. 1): significantly different
mechanical withdrawal thresholds vs model group (CCI model rats; 3 mg/kg single dose by gavage, 0.5 h to 24 h after administration, P<0.01, FIG. 1): significantly different
level of analgesia compared with pregabalin (CCI model rats; [2]): superior to that of pregabalin
period of analgesia time compared with pregabalin (CCI model rats; [2]): longer period of analgesia time
mechanical withdrawal thresholds in the CCI model rats, dose dependence (CCI model rats; single dose at 3, 1 and 0.3 mg/kg, FIG. 1): dose-dependently increasing
number of histamine-induced scratched in mice ([1]; 10 mg/kg): reduced
antipruritic effect compared with positive control dexamethasone ([1]; 10 mg/kg vs dexamethasone 3 mg/kg): more effective than the positive control
Inhibition Rate (%) of number of scratches ([1]; BIOS-B-12 10 mg/kg 4 h, BIOS-B-18 10 mg/kg 1 h, Dex 3 mg/kg 1 h before histamine 500 μg/50 μL s.c., observed 30 min, (Model-Compound)/Model×100%): 36.6%
inhibition at 10 µM (hERG channel): 2.06%

Reference: US20250179040A1, “HISTAMINE H3 RECEPTOR ANTAGONISTS AND THEIR PHARMACEUTICAL USES” (HANGZHOU BIO-SINCERITY PHARMA-TECH CO., LTD., priority 2022, published 2025)
